Measurements published in patent US7541353B2, “Compounds for the treatment of hepatitis C” (Bristol-Myers Squibb Company, priority 2007, dated 2009).
Read-outs that look alike come from different tables or passages of the source.

What was measured:
HCV NS5B = molecular target: T1, HCV NS5B (Hepatitis C virus genotype 1b, UniProt Q9WMX2); test: Modified HCV NS5B RdRp enzyme assay (preincubation protocol); assay type: biochemical
T1 construct: The cDNA encoding the NS5B protein of HCV, genotype 1b; made in house; host or cells: E. coli BL21(DE3)
Description: HCV NS5B RdRp cloning, expression, and purification. The cDNA encoding the NS5B protein of HCV, genotype 1b, was cloned into the pET21a expression vector. The protein was expressed with an 18 amino acid C-terminal truncation to enhance the solubility. The E. coli competent cell line BL21(DE3) was used for expression of the protein. Cultures were grown at 37° C. for ˜4 hours until the cultures reached an optical density of 2.0 at 600 nm. The cultures were cooled to 20° C. and induced with 1 mM IPTG. Fresh ampicillin was added to a final concentration of 50 μg/ml and the cells were grown overnight at 20° C.
Cell pellets (3L) were lysed for purification to yield 15-24 mgs of purified NS5B. The lysis buffer consisted of 20 mM Tris-HCl, pH 7.4, 500 mM NaCl, 0.5% triton X-100, 1 mM DTT, 1 mM EDTA, 20% glycerol, 0.5 mg/ml lysozyme, 10 mM MgCl2, 15 ug/ml deoxyribonuclease I, and Complete™ protease inhibitor tablets (Roche). After addition of the lysis buffer, frozen cell pellets were resuspended using a tissue homogenizer. To reduce the viscosity of the sample, aliquots of the lysate were sonicated on ice using a microtip attached to a Branson sonicator. The sonicated lysate was centrifuged at 100,000×g for 1 hr at 4° C. and filtered through a 0.2 μm filter unit (Corning).
The protein was purified using two sequential chromatography steps: Heparin sepharose CL-6B and polyU sepharose 4B (Pharmacia). The chromatography buffers were identical to the lysis buffer but contained no lysozyme, deoxyribonuclease I, MgCl2 or protease inhibitor and the NaCl concentration of the buffer was adjusted according to the requirements for charging the protein onto the column. Each column was eluted with a NaCl gradient which varied in length from 5-50 column volumes depending on the column type. After the final chromatography step, the resulting purity of the enzyme is >90% based on SDS-PAGE analysis. The enzyme was aliquoted and stored at −80° C.
Standard HCV NS5B RdRp enzyme assay. HCV RdRp genotype 1b assays were run in a final volume of 60 μl in 96 well plates (Corning 3600). The assay buffer is composed of 20 mM Hepes, pH 7.5, 2.5 mM KCl, 2.5 mM MgCl2, 1 mM DTT, 1.6 U RNAse inhibitor (Promega N2515), 0.01 mg/ml BSA (Sigma B6917), and 2% glycerol. All compounds were serially diluted (3-fold) in DMSO and diluted further in water such that the final concentration of DMSO in the assay was 2%. HCV RdRp genotype 1b enzyme was used at a final concentration of 28 nM. A polyA template was used at 6 nM, and a biotinylated oligo-dT12 primer was used at 180 nM final concentration. Template was obtained commercially (Amersham 27-4110). Biotinylated primer was prepared by Sigma Genosys. 3H-UTP was used at 0.6 μCi (0.29 μM total UTP). Reactions were initiated by the addition of enzyme, incubated at 30° C. for 60 min, and stopped by adding 25 μl of 50 mM EDTA containing SPA beads (4 μg/μl, Amersham RPNQ 0007). Plates were read on a Packard Top Count NXT after >1 hr incubation at room temperature.
Modified HCV NS5B RdRp enzyme assay. A modified enzyme assay was performed essentially as described for the standard enzyme assay except for the following: The biotinylated oligo dT12 primer was precaptured on streptavidin-coated SPA beads by mixing primer and beads in assay buffer and incubating at room temperature for one hour. Unbound primer was removed after centrifugation. The primer-bound beads were resuspended in 20 mM Hepes buffer, pH 7.5 and used in the assay at final concentrations of 20 nM primer and 0.67 μg/μl beads. Order of addition in the assay: enzyme (1.75 nM) was added to diluted compound followed by the addition of a mixture of template (0.36 nM), 3H-UTP (0.6 μCi, 0.29 μM), and primer-bound beads, to initiate the reaction; concentrations given are final. Reactions were allowed to proceed for 4 hours at 30° C.
IC50 values for compounds were determined using seven different [I]. […]

HCV replicon cells = test: HCV replicon FRET assay; assay type: cell-based
Description: FRET Assay Preparation. The HCV FRET screening assay was performed in 96-well cell culture plates. The FRET peptide (Anaspec, Inc.) (Taliani et al., Anal. Biochem. 1996, 240, 60-67) contains a fluorescence donor, EDANS, near one end of the peptide and an acceptor, DABCYL, near the other end. The fluorescence of the peptide is quenched by […] resonance energy transfer (RET) between the donor and the acceptor, but as the NS3 protease cleaves the peptide the products are released from RET quenching and the fluorescence of the donor becomes apparent. The assay reagent was made as follows: 5× cell Luciferase cell culture lysis reagent from Promega (#E153A) diluted to 1× with dH2O, NaCl added to 150 mM final, the FRET peptide diluted to 20 μM final from a 2 mM stock.
To prepare plates, HCV replicon cells, with or without a Renilla luciferase reporter gene, were trypsinized and plated in a 96-well plate with titrated test compounds added in columns 3 through 12; columns 1 and 2 contained a control compound (HCV control inhibitor), and the bottom row contained cells with DMSO only. The plates were then placed in a CO2 incubator at 37° C.
Assays. Subsequent to addition of the test compounds described above (FRET Assay Preparation), at various times the plate was removed and Alamar blue solution (Trek Diagnostics, #00-100) was added to measure cellular toxicity. After reading in a Cytoflour 4000 instrument (PE Biosystems), plates were rinsed with PBS and then used for FRET assay by the addition of 30 ul of the FRET peptide assay reagent described above (FRET Assay Preparation) per well. The plate was then placed into the Cytoflour 4000 instrument which had been set to 340 excite/490 emission, automatic mode for up to 20 cycles and the plate read in a kinetic mode. Typically, the signal to noise using an endpoint analysis after the reads was at least three-fold. Alternatively, after Alamar blue reading, plates were rinsed with PBS, then used for luciferase assay using the Promega Dual-Glo Luciferase Assay System or the Promega EnduRen Live Cell Substrate assay.
Compound analysis was performed by quantification of the relative HCV replicon inhibition and the relative cytotoxicity values. To calculate cytoxicity values, the average Alamar Blue fluorescence signals from the control wells were set as 100% non-toxic. The individual signals in each of the compound test wells were then divided by the average control signal and multiplied by 100% to determine […]. To calculate the HCV replicon inhibition values, an average background value was obtained from the two wells containing the highest amount of HCV control inhibitor at the end of the assay period. These numbers were similar to those obtained from naïve Huh-7 cells. The background numbers were then subtracted from the average signal obtained from the control wells and this number was used as 100% activity. The individual signals in each of the compound test wells were then divided by the averaged control values after background subtraction and multiplied by 100% to determine percent activity. EC50 values were calculated as the concentration which caused a 50% reduction in FRET or luciferase activity. The two numbers generated for the compound plate, percent cytoxicity and percent activity, were used to determine compounds of interest for further analysis.

T1 sequence (Q9WMX2 2420-2992): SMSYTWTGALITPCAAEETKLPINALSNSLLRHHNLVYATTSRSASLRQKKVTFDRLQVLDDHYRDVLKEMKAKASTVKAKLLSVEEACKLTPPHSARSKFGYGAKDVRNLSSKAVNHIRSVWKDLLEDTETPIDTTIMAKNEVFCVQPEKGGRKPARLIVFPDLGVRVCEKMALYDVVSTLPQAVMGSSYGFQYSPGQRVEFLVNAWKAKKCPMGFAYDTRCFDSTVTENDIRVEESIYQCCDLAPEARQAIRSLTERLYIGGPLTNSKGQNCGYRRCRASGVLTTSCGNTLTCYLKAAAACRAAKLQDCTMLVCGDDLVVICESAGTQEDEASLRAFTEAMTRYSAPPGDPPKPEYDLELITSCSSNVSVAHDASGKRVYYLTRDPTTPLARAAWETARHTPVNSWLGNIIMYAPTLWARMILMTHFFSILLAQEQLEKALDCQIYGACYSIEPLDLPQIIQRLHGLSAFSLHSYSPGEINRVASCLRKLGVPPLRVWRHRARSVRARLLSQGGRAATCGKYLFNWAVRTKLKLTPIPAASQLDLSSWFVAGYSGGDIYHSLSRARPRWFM

| Structure (SMILES) | IC50 (HCV NS5B) | EC50 (HCV replicon cells; Hepatitis C virus) | further results |
| --- | --- | --- | --- |
| COc1ccc2c(c1)C1CC1(C(=O)N1C3CCC1CC(C)(O)C3)Cn1c-2c(C2CCCCC2)c2ccc(C(=O)NS(=O)(=O)N(C)C)cc21 (centres unmarked) | 4.58 to 500 nM | 4.58 to 500 nM |  |
| COc1ccc2c(c1)C1CC1(C(=O)N1C3CCC1CC(N(C)C)C3)Cn1c-2c(C2CCCCC2)c2ccc(C(=O)NS(=O)(=O)N(C)C)cc21 (centres unmarked) | 4.58 to 500 nM | 4.58 to 500 nM |  |
| COc1ccc2c(c1)[C@@H]1C[C@]1(C(=O)N1C3CCC1CC(C)(O)C3)Cn1c-2c(C2CCCCC2)c2ccc(C(=O)NS(=O)(=O)N(C)C)cc21 (some centres unmarked) [drawing 46] | 4.58 to 500 nM | 4.58 to 500 nM |  |
| COc1ccc2c(c1)C1CC1(C(=O)N1C3CCCC1COC3)Cn1c-2c(C2CCCCC2)c2ccc(C(=O)NS(=O)(=O)CCC(F)(F)F)cc21 (centres unmarked) | 4.58 to 500 nM | 4.58 to 500 nM |  |
| COc1ccc2c(c1)C1CC1(C(=O)N1C3CCC1CC(NCC1CC1)C3)Cn1c-2c(C2CCCCC2)c2ccc(C(=O)NS(=O)(=O)N(C)C)cc21 (centres unmarked) [drawing 26] |  |  | IC50 (HCV NS5B; preincubation protocol): 4.58 to 500 nM; EC50 (HCV replicon cells; FRET assay): 4.58 to 500 nM |
| COc1ccc2c(c1)[C@@H]1C[C@]1(C(=O)N1C3CCC1CC(C)(O)C3)Cn1c-2c(C2CCCCC2)c2ccc(C(=O)NS(=O)(=O)N(C)C)cc21 (some centres unmarked) [drawing 47] |  |  | IC50 (HCV NS5B; preincubation protocol): 4.58 to 500 nM; EC50 (HCV replicon cells; FRET assay): 4.58 to 500 nM |
| COc1ccc2c(c1)C1CC1(C(=O)N1C3COCC1COC3)Cn1c-2c(C2CCCCC2)c2ccc(C(=O)NS(=O)(=O)C(C)C)cc21 (centres unmarked) | 4.58 to 500 nM | 4.58 to 500 nM |  |
| COc1ccc2c(c1)C1CC1(C(=O)N1C3CCCC1COC3)Cn1c-2c(C2CCCCC2)c2ccc(C(=O)NS(=O)(=O)C3CCC3)cc21 (centres unmarked) | 4.58 to 500 nM | 4.58 to 500 nM |  |
| COc1ccc2c(c1)C1CC1(C(=O)N1C3CCC1CC(N(C)Cc1ccccc1)C3)Cn1c-2c(C2CCCCC2)c2ccc(C(=O)NS(=O)(=O)C(C)C)cc21 (centres unmarked) [drawing 36] | 4.58 to 500 nM | 4.58 to 500 nM |  |
| COc1ccc2c(c1)[C@@H]1C[C@]1(C(=O)N1C3COCC1COC3)Cn1c-2c(C2CCCCC2)c2ccc(C(=O)NS(=O)(=O)N(C)C)cc21 | 4.58 to 500 nM | 4.58 to 500 nM |  |
| COc1ccc2c(c1)C1CC1(C(=O)N1C3CCC[C@@H]1COC3)Cn1c-2c(C2CCCCC2)c2ccc(C(=O)NS(=O)(=O)CC(F)(F)F)cc21 (some centres unmarked) | 4.58 to 500 nM | 4.58 to 500 nM |  |
| COc1ccc2c(c1)C1CC1(C(=O)N1C3CCC[C@@H]1COC3)Cn1c-2c(C2CCCCC2)c2ccc(C(=O)NS(=O)(=O)C(C)C)cc21 (some centres unmarked) | 4.58 to 500 nM | 4.58 to 500 nM |  |
| COc1ccc2c(c1)C1CC1(C(=O)N1C3CCC1COC3)Cn1c-2c(C2CCCCC2)c2ccc(C(=O)NS(=O)(=O)N(C)C)cc21 (centres unmarked) | 4.58 to 500 nM | 4.58 to 500 nM |  |
| COc1ccc2c(c1)C1CC1(C(=O)N1C3CCC1CC(NCc1ccccc1)C3)Cn1c-2c(C2CCCCC2)c2ccc(C(=O)NS(=O)(=O)N3CCC3)cc21 (centres unmarked) | 4.58 to 500 nM | 4.58 to 500 nM |  |
| CNC1CC2CCC(C1)N2C(=O)C12CC1c1cc(OC)ccc1-c1c(C3CCCCC3)c3ccc(C(=O)NS(=O)(=O)N(C)C)cc3n1C2 (centres unmarked) [drawing 29] |  |  | IC50 (HCV NS5B; preincubation protocol): 4.58 to 500 nM; EC50 (HCV replicon cells; FRET assay): 4.58 to 500 nM |
| COc1ccc2c(c1)C1CC1(C(=O)N1C3CCC1CC3)Cn1c-2c(C2CCCCC2)c2ccc(C(=O)NS(=O)(=O)N3CCN(C)CC3)cc21 (centres unmarked) | 4.58 to 500 nM | 4.58 to 500 nM |  |
| COc1ccc2c(c1)C=C(C(=O)N1C3CCCC1COC3)Cn1c-2c(C2CCCCC2)c2ccc(C(=O)NS(=O)(=O)C3CC3)cc21 | 4.58 to 500 nM | 4.58 to 500 nM |  |
| COc1ccc2c(c1)C1CC1(C(=O)N1C3COCC1COC3)Cn1c-2c(C2CCCCC2)c2ccc(C(=O)NS(=O)(=O)C3CCCCC3)cc21 (centres unmarked) | 4.58 to 500 nM | 4.58 to 500 nM |  |
| COc1ccc2c(c1)C1CC1(C(=O)N1C3COCC1COC3)Cn1c-2c(C2CCCCC2)c2ccc(C(=O)NS(=O)(=O)C3CCCC3)cc21 (centres unmarked) | 4.58 to 500 nM | 4.58 to 500 nM |  |
| CCNC1CC2CCC(C1)N2C(=O)C12CC1c1cc(OC)ccc1-c1c(C3CCCCC3)c3ccc(C(=O)NS(=O)(=O)N(C)C)cc3n1C2 (centres unmarked) | 4.58 to 500 nM | 4.58 to 500 nM |  |
| COc1ccc2c(c1)C1CC1(C(=O)C1C3CCC1CC3)Cn1c-2c(C2CCCCC2)c2ccc(C(=O)NS(=O)(=O)N(C)C)cc21 (centres unmarked) |  |  | IC50 (HCV NS5B; preincubation protocol, read-out: IC50): 4.58 to 500 nM; EC50 (HCV replicon cells; Hepatitis C virus, FRET assay, read-out: EC50): 4.58 to 500 nM |
| CCC(C)S(=O)(=O)NC(=O)c1ccc2c(C3CCCCC3)c3n(c2c1)CC1(C(=O)N2C4CCC2CC(N(C)Cc2ccccc2)C4)CC1c1cc(OC)ccc1-3 (centres unmarked) | 4.58 to 500 nM | 4.58 to 500 nM |  |
| COc1ccc2c(c1)C1CC1(C(=O)N1C3CCC1CC(N(C)Cc1ccccc1)C3)Cn1c-2c(C2CCCCC2)c2ccc(C(=O)NS(=O)(=O)N3CCC3)cc21 (centres unmarked) | 4.58 to 500 nM | 4.58 to 500 nM |  |
| COc1ccc2c(c1)C1CC1(C(=O)N1C3CCC1CC(=O)C3)Cn1c-2c(C2CCCCC2)c2ccc(C(=O)NS(=O)(=O)C3CC3)cc21 (centres unmarked) | 4.58 to 500 nM |  |  |
